Molecular target: SOS1/KRAS WT (Homo sapiens (Human), UniProt Q07889)
Experiment: SOS1/KRAS WT HTRF binding assay (FRET-based protein-protein interaction)
Conditions: inhibition of His6-SOS1 (aa564-1049, 40 nM) binding to GST-KRAS-WT (aa1-188, 40 nM); at least two independent replicates; read-out: SOS1/KRAS WT HTRF Binding assay pIC50 (converted)
In short: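 GST-KRAS WT (aa1-188, 40 nM) and His6-SOS1 exchange domain (aa564-1049, 40 nM) were incubated 60 min at room temperature with compound dose response in HEPES pH7.3 buffer with 10 mM EDTA and 100 mM KF. Anti-GST-Eu(K)/anti-6His-XL665 HTRF was read after 4 hr, and IC50 came from a four-parameter fit (≥2 replicates).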

SOS1/KRAS WT, sequence (Q07889 564-1049): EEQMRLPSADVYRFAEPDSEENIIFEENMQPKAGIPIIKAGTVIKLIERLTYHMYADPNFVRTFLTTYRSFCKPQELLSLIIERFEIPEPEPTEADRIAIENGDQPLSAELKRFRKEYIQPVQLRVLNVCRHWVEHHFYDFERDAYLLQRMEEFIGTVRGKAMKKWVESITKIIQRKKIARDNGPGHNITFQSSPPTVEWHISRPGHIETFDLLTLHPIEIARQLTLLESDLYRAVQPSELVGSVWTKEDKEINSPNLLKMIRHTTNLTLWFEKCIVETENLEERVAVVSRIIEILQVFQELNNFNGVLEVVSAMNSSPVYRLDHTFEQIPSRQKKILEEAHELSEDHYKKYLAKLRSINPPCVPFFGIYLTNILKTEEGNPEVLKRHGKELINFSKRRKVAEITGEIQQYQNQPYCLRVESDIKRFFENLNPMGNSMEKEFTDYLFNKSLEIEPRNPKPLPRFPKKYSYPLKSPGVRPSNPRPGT

SMILES | IC50 [nM]
Cc1nnc(N[C@H](C)c2cccc(C(F)(F)C(C)(C)O)c2)c2cc3c(cc12)n(C)c(=O)n3C(C)(C)C [Compound 103, 3-tert-butyl-1,8-dimethyl-5-[[(1R)-1-[3-(1,1-difluoro-2-hydroxy-2-methyl-propyl)phenyl]ethyl]amino]imidazo [4,5-g]phthalazin-2-one] | 7.94
Cc1nnc(N[C@H](C)c2cccc(C(F)(F)F)c2)c2cc3[nH]c(=O)n(C)c3cc12 [Compound 145, 1,8-dimethyl-5-[[(1R)-1-[3-(trifluoromethyl)phenyl]ethyl]amino]-3H-imidazo[4,5-g]phthalazin-2-one] | 66.1
Cc1c(-c2cncnc2)cccc1[C@@H](C)Nc1nnc(C)c2cc3c(cc12)n(C)c(=O)n3C [Compound 153, 1,3,8-trimethyl-5-[[(1R)-1-(2-methyl-3-pyrimidin-5-yl-phenyl)ethyl]amino]imidazo[4,5-g]phthalazin-2-one] | 107
COC1(C)C(=O)N(C)c2cc3c(N[C@H](C)c4cccc(C(F)(F)C(C)(C)O)c4C)nnc(C)c3cc21 (stereo partly drawn) [Compound 102, 3-methoxy-1,3,5-trimethyl-8-[[(1R)-1-[3-(1,1-difluoro-2-hydroxy-2-methyl-propyl)-2-methyl-phenyl]ethyl]amino]pyrrolo[2,3-g]phthalazin-2-one] | 8.32
COC1(C)C(=O)N(C)c2cc3c(N[C@H](C)c4cc(F)cc(C(F)(F)CO)c4F)nnc(C)c3cc21 (stereo partly drawn) [Compound 141, 3-methoxy-1,3,5-trimethyl-8-[[(1R)-1-[3-(1,1-difluoro-2-hydroxy-ethyl)-2,5-difluoro-phenyl]ethyl]amino]pyrrolo[2,3-g]phthalazin-2-one] | 20
CCOC1(C)C(=O)N(C)c2cc3c(C)nnc(N[C@H](C)c4cccc(C(F)(F)CO)c4)c3cc21 (stereo partly drawn) [Compound 195, 3-ethoxy-1,3,8-trimethyl-5-[[(1R)-1-[3-(1,1-difluoro-2-hydroxy-ethyl)phenyl]ethyl]amino]pyrrolo [3,2-g]phthalazin-2-one] | 20.9
COCCn1c(=O)n(C)c2cc3c(C)nnc(N[C@H](C)c4cccc(C(F)(F)CO)c4F)c3cc21 [Compound 37, 3-(2-methoxyethyl)-1,8-dimethyl-5-[[(1R)-1-[3-(1,1-difluoro-2-hydroxy-ethyl)-2-fluoro-phenyl]ethyl]amino]imidazo[4,5-g]phthalazin-2-one] | 10.5
COC1(C)C(=O)N(C2CC2)c2cc3c(N[C@H](C)c4cccc(C(F)(F)CO)c4C)nnc(C)c3cc21 (stereo partly drawn) [Compound 143, 1-cyclopropyl-3-methoxy-3,5-dimethyl-8-[[(1R)-1-[3-(1,1-difluoro-2-hydroxy-ethyl)-2-methyl-phenyl]ethyl]amino]pyrrolo[2,3-g]phthalazin-2-one] | 11
Cc1c([C@@H](C)Nc2nnc(C)c3cc4c(cc23)n(C)c(=O)n4C)cccc1C(F)(F)CO [Compound 10, 5-[[(1R)-1-[3-(1,1-difluoro-2-hydroxy-ethyl)-2-methyl-phenyl]ethyl]amino]-1,3,8-trimethyl-imidazo[4,5-g]phthalazin-2-one] | 9.12
Cc1c([C@@H](C)Nc2nnc(C)c3cc4c(cc23)n(C2(C)CC2)c(=O)n4C)cccc1C(F)(F)CO [Compound 76, 1,8-dimethyl-3-(1-methylcyclopropyl)-5-[[(1R)-1-[3-(1,1-difluoro-2-hydroxy-ethyl)-2-methyl-phenyl]ethyl]amino]imidazo[4,5-g]phthalazin-2-one] | 6.03
COCC1(C)C(=O)N(C)c2cc3c(N[C@H](C)c4cccc(C(F)(F)C(C)(C)O)c4C)nnc(C)c3cc21 (stereo partly drawn) [Compound 113, 8-[[(1R)-1-[3-(1,1-difluoro-2-hydroxy-2-methyl-propyl)-2-methyl-phenyl]ethyl]amino]-3-(methoxymethyl)-1,3,5-trimethyl-pyrrolo[3,2-g]phthalazin-2-one] | 13.5
Cc1nnc(N[C@H](C)c2cccc(C(F)(F)CO)c2F)c2cc3c(cc12)C1(CCOCC1)C(=O)N3C [Compound 89, 1,5-dimethyl-8-[[(1R)-1-[3-(1,1-difluoro-2-hydroxy-ethyl)-2-fluoro-phenyl]ethyl]amino]spiro[pyrrolo [2,3-g]phthalazine-3,4′-tetrahydropyran]-2-one] | 8.13
Cc1nnc(N[C@H](C)c2cccc(C(F)(F)CO)c2)c2cc3c(cc12)C1(CCOCC1)C(=O)N3C1CC1 [Compound 112, 1-cyclopropyl-5-methyl-8-[[(1R)-1-[3-(1,1-difluoro-2-hydroxy-ethyl)phenyl]ethyl]amino]spiro [pyrrolo[2,3-g]phthalazine-3,4′-tetrahydropyran]-2-one] | 11

More lines, now with the values ahead:

IC50 [nM] | SMILES
9.12 | CCOC1(C)C(=O)N(C2CC2)c2cc3c(N[C@H](C)c4cccc(C(F)(F)CO)c4)nnc(C)c3cc21 (stereo partly drawn) [Compound 162, 1-cyclopropyl-8-[[(1R)-1-[3-(1,1-difluoro-2-hydroxy-ethyl)phenyl]ethyl]amino]-3-ethoxy-3,5-dimethyl-pyrrolo[3,2-g]phthalazin-2-one]
11 | COC1(C)C(=O)N(C)c2cc3c(N[C@H](C)c4cc(F)cc(C(F)(F)CO)c4C)nnc(C)c3cc21 (stereo partly drawn) [Compound 183, 3-methoxy-1,3,5-trimethyl-8-[[(1R)-1-[3-(1,1-difluoro-2-hydroxy-ethyl)-5-fluoro-2-methyl-phenyl]ethyl]amino]pyrrolo[2,3-g]phthalazin-2-one]
23.4 | Cc1nnc(N[C@H](C)c2cccc(C(F)(F)F)c2)c2cc3c(cc12)n(C)c(=O)n3CC1CC1 [Compound 18, 3-(cyclopropylmethyl)-1,8-dimethyl-5-[[(1R)-1-[3-(trifluoromethyl)phenyl]ethyl]amino] imidazo[4,5-g]phthalazin-2-one]
6.76 | Cc1c([C@@H](C)Nc2nnc(C)c3cc4c(cc23)N(C(C)C)C(=O)C4(C)C)cccc1C(F)(F)CO [Compound 79, 1-isopropyl-3,3,5-trimethyl-8-[[(1R)-1-[3-(1,1-difluoro-2-hydroxy-ethyl)-2-methyl-phenyl]ethyl]amino]pyrrolo[2,3-g]phthalazin-2-one]
9.55 | Cc1nnc(N[C@H](C)c2cccc(C(F)F)c2F)c2cc3c(cc12)n(C)c(=O)n3C [Compound 31, 1,3,8-trimethyl-5-[[(1R)-1-[3-(difluoromethyl)-2-fluoro-phenyl]ethyl]amino]imidazo[4,5-g]phthalazin-2-one]
10.7 | COCC1(C)C(=O)N(C)c2cc3c(N[C@H](C)c4cccc(C(F)(F)CO)c4C)nnc(C)c3cc21 (stereo partly drawn) [Compound 105, 8-[[(1R)-1-[3-(1,1-difluoro-2-hydroxy-ethyl)-2-methyl-phenyl]ethyl]amino]-3-(methoxymethyl)-1,3,5-trimethyl-pyrrolo[3,2-g]phthalazin-2-one]
8.13 | Cc1nnc(N[C@H](C)c2cccc(C(F)(F)CO)c2F)c2cc3c(cc12)N(C)C(=O)C3(C)C [Compound 99, 1,3,3,8-tetramethyl-5-[[(1R)-1-[3-(1,1-difluoro-2-hydroxy-ethyl)-2-fluoro-phenyl]ethyl]amino]pyrrolo[3,2-g]phthalazin-2-one]
9.33 | Cc1nnc(N[C@H](C)c2cccc(C(F)(F)C(C)(C)O)c2)c2cc3c(cc12)C1(CCCC1)C(=O)N3C [Compound 188, 1′,5′-dimethyl-8′-[[(1R)-1-[3-(1,1-difluoro-2-hydroxy-2-methyl-propyl)phenyl]ethyl]amino]spiro [cyclopentane-1,3′-pyrrolo[2,3-g]phthalazine]-2′-one]
11.5 | Cc1nnc(N[C@H](C)c2cccc(C(F)(F)F)c2)c2cc3c(cc12)n(C)c(=O)n3C1CC1 [Compound 13, 3-cyclopropyl-1,8-dimethyl-5-[[(1R)-1-[3-(trifluoromethyl)phenyl]ethyl]amino]imidazo[4,5-g]phthalazin-2-one]
11 | Cc1c(-c2ccn(C)n2)cccc1[C@@H](C)Nc1nnc(C)c2cc3c(cc12)n(C)c(=O)n3C [Compound 151, 1,3,8-trimethyl-5-[[(1R)-1-[2-methyl-3-(1-methylpyrazol-3-yl)phenyl]ethyl]amino]imidazo[4,5-g]phthalazin-2-one]
6.76 | Cc1nnc(N[C@H](C)c2cccc(C(F)(F)CO)c2F)c2cc3c(cc12)C1(CCCC1)C(=O)N3C [Compound 189, 1′,5′-dimethyl-8′-[[(1R)-1-[3-(1,1-difluoro-2-hydroxy-ethyl)-2-fluoro-phenyl]ethyl]amino]spiro[cyclopentane-1,3′-pyrrolo[2,3-g]phthalazine]-2′-one]
